The source of these data is US5545755A, “Therapeutically useful 2-aminotetralin derivatives” (priority 1995, dated 1996).

Experiment [1] has as its target T1, 5-hydroxytryptamine (5-HT1A) receptor (Bos taurus, UniProt F6Q2H9).
T1 construct: bovine brain homogenate; from tissue; host or cells: bovine brain homogenate
T1 sequence (F6Q2H9 1-422): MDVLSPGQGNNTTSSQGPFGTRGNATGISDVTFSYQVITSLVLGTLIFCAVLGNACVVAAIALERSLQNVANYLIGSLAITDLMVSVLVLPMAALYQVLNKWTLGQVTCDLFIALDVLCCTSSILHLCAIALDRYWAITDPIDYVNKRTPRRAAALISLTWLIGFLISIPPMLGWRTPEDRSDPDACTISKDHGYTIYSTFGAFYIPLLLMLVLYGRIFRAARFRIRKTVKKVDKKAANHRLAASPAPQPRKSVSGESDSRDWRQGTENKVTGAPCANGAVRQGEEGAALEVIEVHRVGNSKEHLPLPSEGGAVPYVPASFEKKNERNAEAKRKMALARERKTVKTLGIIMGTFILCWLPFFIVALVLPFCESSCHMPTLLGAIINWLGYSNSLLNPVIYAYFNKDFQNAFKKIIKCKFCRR
Description: Inhibition of 8-OH-DPAT binding in a bovine brain homogenate (5-HT1A binding). From the text:
Binding: Inhibition of 8-OH-DPAT binding in a bovine brain homogenate. Potency is given as nM dose required to inhibit 50% of DPAT binding (IC50). This test measures ability to bind to 5-hydroxytryptamine (5-HT1A) receptor.

Experiment [2] is described as follows: Hypothermia in mice after subcutaneous injection. In kind it is in vivo. The settings on record: Mus musculus, sc, dose depressing temperature by 2° C. in two of four mice. How it is done: Hypothermia: Starting with a dose of 30 mg/kg, four mice are injected subcutaneously with test compound. Twenty minutes later, the number of animals whose body temperature has decreased by 2° C. or more are counted. […] The time for last statistically significant drug affect on mean body temperature is indicated in minutes. […] Potency is given as mg/kg ED50 (dose required to depress temperature in two of four mice) as measured by Spearman-Karber statistics.

In experiment [3] the test system is sympathetic nerve discharge. Description: Sympathetic Nerve Discharge (SND) in chloralose anesthetized cats. The class given is in vivo. The settings on record: Felis catus, iv, dose causing 50% depression in SND. Here is the method: Sympathetic Nerve Discharge (SND): The i.v. mg/kg dose causing a 50% depression in SND in chloralose anesthetized cats and the maximum inhibition of sympathetic activity observed in the dose range tested (0.001-1.0 mg/kg i.v.).

Experiment [4] is described as follows: Blood pressure in chloralose anesthetized cats (BP SND/MAX). The class given is in vivo. The note with it: i.v., blood pressure in percent control at the dose causing 50% depression in SND. Here is the method: BP SND/MAX: The blood pressure of the chloralose anesthetized cats in percent control at the dose causing 50% depression in SND and the maximum reduction in blood pressure as percent of the control blood pressure in the same animals observed in the dose range tested (0.001-1.0 mg/kg i.v.).

For experiment [5] the following is noted: Chem. Ab., 79:146294b; cited from earlier work.
The conditions of experiment [6]: J. Pharm. Sci., 67, 880-82 (1978); cited from earlier work.
A further experiment has as its system dopamine receptors. The note with it: cited from earlier work.
In the next experiment the target is D2 receptor (Homo sapiens, UniProt P14416). Description: Dopamine D2 receptor in vitro binding. The text has this:
The compounds of this invention where R1 is in the 8 position in the aromatic ring are very selective 5-HT1A receptor agonists having little or no dopaminergic activity. […] Both these features are beneficial to effective clinical treatment.

The conditions of experiment [7]: some patients; cited from earlier work.

Molecules are shown by their SMILES. pIC50: −log10 of the molar value. Counter-ions that a name gives are not always drawn. Like-named read-outs stand apart in the source and are kept apart here.

Chain of D2 receptor (P14416 whole entry): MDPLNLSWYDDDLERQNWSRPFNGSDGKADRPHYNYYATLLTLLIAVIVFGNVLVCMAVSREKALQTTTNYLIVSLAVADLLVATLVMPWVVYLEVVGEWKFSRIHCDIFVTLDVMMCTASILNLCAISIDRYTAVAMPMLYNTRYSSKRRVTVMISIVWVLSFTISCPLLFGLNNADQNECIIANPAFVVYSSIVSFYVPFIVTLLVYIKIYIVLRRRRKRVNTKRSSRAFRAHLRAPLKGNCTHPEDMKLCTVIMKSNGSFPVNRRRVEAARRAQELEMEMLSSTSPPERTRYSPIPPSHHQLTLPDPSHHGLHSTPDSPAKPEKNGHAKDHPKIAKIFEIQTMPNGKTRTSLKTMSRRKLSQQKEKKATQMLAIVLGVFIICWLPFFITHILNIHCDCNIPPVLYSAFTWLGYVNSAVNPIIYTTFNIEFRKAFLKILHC

As a reminder, the pIC50 is the negative decadic logarithm of the IC50, by convention in mol/L. The term ED50 denotes the dose that gives a 50% effect, or the effect in half of the subjects. High values mean weaker potency, low ones greater potency. In experiment [1], `C=CCN(CC=C)C1CCc2ccccc2C1.Cl` (racemic) [Example 21 Compound 6, (+-)-1,2,3,4-Tetrahydro-N,N-di-2-propenyl-2-naphthalenamine hydrochloride] gave a pIC50 of 7.29. In addition, the ED50 in experiment [2] came out at 0.97 mg/kg; in [3], 0.6 mg/kg. Moreover, the “% BD (at SND ED50)” value in experiment [4] was 52.0%.
Consider `C=CCN[C@@H]1CCc2cccc(OC)c2[C@@H]1CC=C` (relative stereo) [Example 26 Compound 1, Cis-(+-)-1,2,3,4-Tetrahydro-8-methoxy-N,1-di-(2-pro-penyl)-2-naphthalenamine hydrochloride], for which the ED50 came to 2.31 mg/kg in [2] and 0.16 mg/kg in [3]. Moreover, the “% BD (at SND ED50)” value in experiment [4] is on record as 70.0%.
On to `Brc1cccc2c1CC(N1CCCC1)CC2` (single isomer, unassigned; (+)) [Compound 59-1, (+)-1,2,3,4-tetrahydro-2-pyrrolidino-8-bromo-tetralin], for which, in experiment [1] (read-out: 5-HT1A Binding IC50), the pIC50 is 8.40.
In the case of `NC(=O)c1cccc2c1CC(N1CCCC1)CC2` (single isomer, unassigned; (+)) [Compound 60-1, (+)-1,2,3,4-tetrahydro-2-pyrrolidino-naphthalene-8-yl-carboxamide], the pIC50 in experiment [1] (read-out: 5-HT1A Binding IC50) is 7.96.
As to `CN(C)C1CCc2ccc(O)cc2C1(C)C` (stereo not shown) [1,1-Dimethyl-2-(N,N-dimethylamino)-7-hydroxytetralin], the “analgesic and intestinal movement accelerating actions” value in experiment [5] was “analgesic and intestinal movement accelerating actions”.
For the compound `COc1cccc2c1CCC(NC1CC1)C2C` (stereo not shown) [1-methyl-2-(cyclopropylamino)-5-methoxytetralin], the local anesthetic activity result in [6] is “possess local anesthetic activity”.
Consider `O=C1CC2(CCCC2)CC(=O)N1CCCCN1CCN(c2ncccn2)CC1` [Buspirone], for which, in the experiment on dopamine receptors, the dopamine receptor antagonism result is reported as “antagonizes dopamine receptors at the same dose it stimulates 5-HT1A receptors”.
For `c1ccc2c(c1)CCC(N1CCCCCC1)C2` (stereo not shown) [Compound 57-3, Hexahydro-1-(1,2,3,4-tetrahydro-2-naphthalenyl)-1H-Azepine], the pIC50 in experiment [1] (read-out: 5-HT1A Binding IC50) is 6.99. Besides, the ED50 in [2] came out at 2.3 mg/kg; in [3] it was 0.62 mg/kg. In addition, the “% BD (at SND ED50)” value in experiment [4] is 75.0%.
Turning to `NC(=O)c1cccc2c1CC(N1CCCCCC1)CC2` (stereo not shown) [Compound 58-1, (1-Hexahydroazepinyl)-5,6,7,8-tetrahydronaphthalene-1-carboxamide], the figures for the pIC50 (in experiment [1] (read-out: 5-HT1A Binding IC50); at D2 receptor) were 7.59 and below 6.00, respectively. Also, the ED50 in [2] is 2.3 mg/kg.
Take `CCCN(CC1CC1)C1CCc2cccc(C(N)=O)c2C1` (stereo not shown) [Example 5 Compound 2, 1,2,3,4-Tetrahydro-2-N-cyclopropylmethyl-2-N-propyl-8-yl-carboxamide]: the pIC50 in [1] (read-out: 5-HT1A Binding IC50) was 7.89. Also, the ED50 in [2] was 0.31 mg/kg; in [3] it was 0.33 mg/kg. Further, the “% BD (at SND ED50)” value in experiment [4] worked out at 40.0%.
On to `C=CCN(C)C1CCc2cccc(OC)c2C1.Cl` (stereo not shown) [Example 15 Compound 12, 1,2,3,4-Tetrahydro-8-methoxy-N-methyl-N-2-propenyl-2-Naphthalenamine hydrochloride], for which the pIC50 in experiment [1] is 8.10. Moreover, the ED50 in experiment [2] amounted to 1.2 mg/kg; in experiment [3], 0.012 mg/kg. Besides, in [4], the “% BD (at SND ED50)” value is listed as 79.0%.
Take `C=CCNC1CCc2cccc(OC)c2C1.Cl` (stereo not shown) [Example 15 Compound 27, 1,2,3,4-Tetrahydro-8-methoxy-N-2-propenyl-2-naphthalenamine hydrochloride]: the pIC50 in experiment [1] was 8.05. Also, the ED50 is 0.31 mg/kg in experiment [2] and 0.1 mg/kg in experiment [3]. Also, in [4], the “% BD (at SND ED50)” value is given as 62.0%.
Consider `C=CCNC1CCc2cccc(O)c2C1.Cl` (stereo not shown) [Example 19 Compound 2, 5,6,7,8-tetrahydro-7-(2-propenyl)amino-1-naphthalenol hydrochloride], for which the pIC50 in [1] is 8.46. Moreover, the ED50 in experiment [2] worked out at 0.73 mg/kg; in [3], 0.01 mg/kg. In addition, in experiment [4], the “% BD (at SND ED50)” value was 78.0%.
For `CC1(C)CC(=O)N(CCCCN2CCN(c3ncccn3)CC2)C(=O)C1` [Gepirone], the dopamine receptor antagonism result in the experiment on dopamine receptors was “has dopamine antagonist properties”. For the same compound, the “effect on depressive endpoints” value in [7] is “ameliorative effects on some depressive endpoints in some patients”.
